Experimental data: ChEMBL document CHEMBL4354805, “Discovery of MK-8719, a Potent O-GlcNAcase Inhibitor as a Potential Treatment for Tauopathies” (J Med Chem, 2019); call rule not given here

Experiments:
[1] = target: T1, Protein O-GlcNAcase (Homo sapiens, UniProt O60502); assay: Inhibition of recombinant human OGA
T1 sequence (O60502 whole entry): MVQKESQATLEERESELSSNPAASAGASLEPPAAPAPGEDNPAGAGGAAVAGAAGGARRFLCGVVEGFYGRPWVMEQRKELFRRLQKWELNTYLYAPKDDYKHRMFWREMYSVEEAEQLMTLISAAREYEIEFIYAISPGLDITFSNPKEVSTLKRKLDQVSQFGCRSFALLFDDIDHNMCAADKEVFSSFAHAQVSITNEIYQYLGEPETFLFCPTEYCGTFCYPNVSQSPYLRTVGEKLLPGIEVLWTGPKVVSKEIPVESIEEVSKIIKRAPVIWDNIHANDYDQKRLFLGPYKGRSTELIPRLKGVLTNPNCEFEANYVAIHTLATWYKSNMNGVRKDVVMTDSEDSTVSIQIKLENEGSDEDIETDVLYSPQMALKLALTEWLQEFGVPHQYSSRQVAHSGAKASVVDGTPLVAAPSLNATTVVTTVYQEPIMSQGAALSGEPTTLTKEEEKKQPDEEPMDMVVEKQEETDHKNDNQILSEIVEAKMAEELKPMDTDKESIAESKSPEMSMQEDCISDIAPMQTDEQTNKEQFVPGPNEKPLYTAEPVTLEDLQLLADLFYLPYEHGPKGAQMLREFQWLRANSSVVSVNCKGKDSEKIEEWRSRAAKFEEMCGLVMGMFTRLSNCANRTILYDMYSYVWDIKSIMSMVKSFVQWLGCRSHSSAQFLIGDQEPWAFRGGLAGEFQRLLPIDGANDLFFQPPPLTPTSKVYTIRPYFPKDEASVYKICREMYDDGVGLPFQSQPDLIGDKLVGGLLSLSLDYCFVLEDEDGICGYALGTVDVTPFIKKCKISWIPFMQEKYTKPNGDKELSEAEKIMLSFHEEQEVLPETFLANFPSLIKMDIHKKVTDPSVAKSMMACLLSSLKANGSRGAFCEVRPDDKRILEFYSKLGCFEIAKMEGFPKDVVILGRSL

[2] = Stability in human hepatocytes assessed as parent compound remaining at 10 uM incubated for 120 mins; type: ADME, cell-based, Hepatocyte; details: read-out: Stability
[3] = Tmax in rat brain at 10 mg/kg, po measured upto 24 hrs; type: ADME, organism-based
[4] = Protein binding in rat plasma; type: ADME, cell-free; details: read-out: PPB
[5] = AUCN in Beagle dog at 3 mg/kg, po; type: ADME, organism-based, Canis lupus familiaris; details: in vivo
[6] = Drug uptake in rat brain at 3 mg/kg, po measured after 24 hrs; type: ADME, organism-based; details: in vivo
[7] = Cmax in telemetered dog at 380 mg/kg, po; type: ADME, organism-based, Canis lupus familiaris; parameters: dose 380 mg/kg, route oral; details: in vivo
[8] = system: Rattus norvegicus; assay: Hemodynamic activity in telemetered rat at 380 mg/kg, po; type: ADME, organism-based; details: in vivo
[9] = Clearance in rhesus monkey at 1 mg/kg, iv; type: ADME, organism-based, Macaca mulatta; details: in vivo
[10] = Fraction unbound in human plasma at 2.5 uM by equilibrium dialysis; type: ADME, cell-free
[11] = Protein binding in human plasma; type: ADME, cell-free; details: read-out: PPB
[12] = Stability in monkey hepatocytes assessed as parent compound remaining at 10 uM incubated for 120 mins; type: ADME, cell-based, Macaca mulatta, Hepatocyte; details: rhesus monkey, read-out: Stability
[13] = Stability in dog hepatocytes assessed as parent compound remaining at 10 uM incubated for 120 mins; type: ADME, cell-based, Canis lupus familiaris, Hepatocyte; details: read-out: Stability
[14] = Stability in rat hepatocytes assessed as parent compound remaining at 10 uM incubated for 120 mins; type: ADME, cell-based, Hepatocyte; details: read-out: Stability
[15] = target: T2, Cytochrome P450 2B6 (Homo sapiens, UniProt P20813); assay: Induction of CYP2B6 in human hepatocytes upto 20 uM; type: ADME, cell-based
T2 sequence (P20813 whole entry): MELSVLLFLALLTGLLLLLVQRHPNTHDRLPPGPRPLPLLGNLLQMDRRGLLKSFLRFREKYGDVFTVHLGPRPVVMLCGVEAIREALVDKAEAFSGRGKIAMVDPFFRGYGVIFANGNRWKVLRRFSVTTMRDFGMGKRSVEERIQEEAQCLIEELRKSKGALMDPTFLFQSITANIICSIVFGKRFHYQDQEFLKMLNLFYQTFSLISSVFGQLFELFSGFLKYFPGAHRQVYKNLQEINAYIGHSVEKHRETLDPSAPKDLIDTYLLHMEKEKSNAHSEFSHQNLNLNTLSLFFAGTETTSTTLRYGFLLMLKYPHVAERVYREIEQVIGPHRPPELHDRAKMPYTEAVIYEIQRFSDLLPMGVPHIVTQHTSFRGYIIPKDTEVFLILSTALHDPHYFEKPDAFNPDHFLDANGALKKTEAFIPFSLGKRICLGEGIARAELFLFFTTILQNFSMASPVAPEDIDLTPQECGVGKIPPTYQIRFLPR

CCNC1=N[C@@H]2[C@@H](O)[C@H](O)[C@@H](C(F)F)O[C@@H]2S1
Ki [1]: 7.9 nM | remaining at 2 h, 10 µM [2]: 90% | Tmax [3]: 8 h | fraction unbound [4]: > 0.95 | AUC/dose [5]: 14.2 µM·kg·h/mg | Drug uptake [6]: 0.088 nmol/g | Cmax [7]: 660 µM | Activity [8]: Non-Toxic | clearance [9]: 26.7 mL/min/kg | fraction unbound at 2.5 µM [10]: 0.99 | fraction unbound [11]: > 0.95 | remaining at 2 h, 10 µM [12]: 58% | remaining at 2 h, 10 µM [13]: 91% | remaining at 2 h, 10 µM [14]: 96% | Activity [15]: Not Active
